Results taken from patent US20100022521A1, “COMPOUNDS” (Hansa Metallwerke AG, priority 2005, published 2010).

The molecules below were run against mGluR5 (UniProt P31424) (assay: MGluR5 receptor binding test ([3H]-M-MPEP displacement)). Settings: radioligand [3H]-M-MPEP (2 nM); species not given; read-out: mGlu5 Ki.
Set-up: species or system rat
Description: MGluR5 Receptor Binding Tests
Rat cerebro-cortical membrane preparation was used to determine the binding characteristics of reference compounds and novel compounds to the rat mGluR5. The A18 cell line expressing hmGluR5a (purchased from Euroscreen) was used to determine binding characteristics of the chemical compounds to the human mGluR5a receptor. As radioligand [3H]-M-MPEP (2 nM) was used. The nonspecific binding was determined in the presence of 10 μM M-MPEP.
With `N#Cc1ccc(-c2c(S(=O)(=O)c3cccc(C#N)c3)sc3ncccc23)cc1` [Compound 69] the Ki was less than 500 nM. In the case of `CC(=O)N1CCN(c2c(S(=O)(=O)c3ccc(Cl)cc3)sc3ncccc23)CC1` [Compound 105], the Ki is reported as greater than 1500 nM. With `O=S(=O)(c1ccc(Cl)cc1)c1sc2ncccc2c1N1CCC(F)(F)CC1` [Compound 134] the Ki was less than 500 nM. For `N#Cc1cccc(S(=O)(=O)c2sc3ncccc3c2-c2ccncc2)c1` [Compound 73], the Ki was less than 500 nM. Molecule `COc1ccc(S(=O)(=O)c2sc3ncccc3c2-c2cccc(F)c2)cc1F` [Compound 127] has a Ki of less than 500 nM. Molecule `O=S(=O)(c1ccc(Cl)cc1)c1sc2ncc(F)cc2c1-c1cccc(F)c1` [Compound 137, 2-(4-Chloro-benzenesulfonyl)-3-(3-fluoro-phenyl)-5-fluoro-thieno[2,3-b]pyridine] has a Ki of less than 500 nM. For `Cc1ccc(S(=O)(=O)c2sc3ncccc3c2-c2ccc(F)cc2)cc1` [Compound 55], the Ki was less than 500 nM. `O=S(=O)(c1ccc(Cl)cc1)c1sc2ncccc2c1N1CCC(C(F)(F)F)CC1` [Compound 92] was tested, and the Ki was less than 500 nM. `N#Cc1cc(F)cc(S(=O)(=O)c2sc3ncccc3c2-c2cccc(Cl)c2)c1` [Compound 136] gave a Ki of less than 500 nM. Work on `O=S(=O)(c1cc(F)cc(F)c1)c1sc2ncccc2c1-c1ccc(Cl)cc1` [Compound 87] yielded a Ki of less than 500 nM. `N#Cc1ccc(S(=O)(=O)c2sc3ncccc3c2-c2cccc(Cl)c2)cc1` [Compound 42] was tested, and the Ki was less than 500 nM. `O=S(=O)(c1cccc(F)c1)c1sc2nc(Cl)ccc2c1-c1ccc(Cl)cc1` [Compound 76] gave a Ki of 500 to 1500 nM. Work on `CN(C)c1ccnc2sc(S(=O)(=O)c3ccc(Cl)cc3)c(-c3ccc(Cl)cc3)c12` [Compound 135, 2-(4-Chloro-benzenesulfonyl)-3-(4-chloro-phenyl)-4-dimethylamino-thieno[2,3-b]pyridine] yielded a Ki of 500 to 1500 nM. With `N#Cc1cc(F)cc(S(=O)(=O)c2sc3ncccc3c2-c2cccc(F)c2)c1` [Compound 110, 2-(3-Cyano-5-fluoro-benzenesulfonyl)-3-(3-fluoro-phenyl)-thieno[2,3-b]pyridine] the Ki was less than 500 nM. `CN1CCN(c2c(S(=O)(=O)c3ccc(Cl)cc3)sc3ncccc23)CC1` [Compound 106] was tested, and the Ki was less than 500 nM. For `O=S(=O)(c1ccc(Cl)cc1)c1sc2ncccc2c1N1CCCC1` [Compound 129], the Ki was less than 500 nM. `O=[N+]([O-])c1cnc2sc(S(=O)(=O)c3ccc(Cl)cc3)c(-c3ccc(Cl)cc3)c2c1` [Compound 72, 2-(4-chloro-benzenesulfonyl)-3-(4-chloro-phenyl)-5-nitro-thieno[2,3-b]pyridine] gave a Ki of 500 to 1500 nM. `O=S(=O)(c1ccc(C(F)(F)F)cc1)c1sc2ncccc2c1-c1ccc(Cl)cc1` [Compound 68] gave a Ki of less than 500 nM. `N#Cc1cc(F)cc(S(=O)(=O)c2sc3ncccc3c2-c2ccccc2F)c1` [Compound 132] showed a Ki of less than 500 nM. `O=S(=O)(c1ccc(Cl)cc1)c1sc2ncccc2c1-c1ccc(Cl)c(Cl)c1` [Compound 41] was tested, and the Ki was less than 500 nM. In the case of `Cc1cccc(S(=O)(=O)c2sc3ncccc3c2-c2ccc(F)cc2)c1` [Compound 61], the Ki is reported as less than 500 nM. In the case of `N#Cc1cccc(-c2c(S(=O)(=O)c3cccc(C#N)c3)sc3ncccc23)c1` [Compound 66], the Ki is reported as less than 500 nM. For `CS(=O)(=O)c1ccc(-c2c(S(=O)(=O)c3ccc(Cl)cc3)sc3ncccc23)cc1` [Compound 108], the Ki was greater than 1500 nM. `N#Cc1cc(F)cc(S(=O)(=O)c2sc3nc(Cl)ccc3c2-c2cccc(F)c2)c1` [Compound 138] gave a Ki of less than 500 nM. `CC1CCN(c2c(S(=O)(=O)c3ccc(Cl)cc3)sc3ncc(O)cc23)CC1` [Compound 107] gave a Ki of less than 500 nM. In the case of `N#Cc1cccc(S(=O)(=O)c2sc3nc(F)ccc3c2-c2ccc(Cl)cc2)c1` [Compound 65], the Ki is reported as less than 500 nM. Work on `O=S(=O)(c1ccc(Cl)cc1)c1sc2ncc(Cl)cc2c1-c1ccc(Cl)cc1` [Compound 97, 5-Chloro-2-(4-chloro-benzenesulfonyl)-3-(4-chloro-phenyl)-thieno[2,3-b]pyridine] yielded a Ki of less than 500 nM. In the case of `O=S(=O)(c1ccc(Cl)cc1)c1sc2ncccc2c1-n1cncn1` [Compound 133], the Ki is reported as 500 to 1500 nM. `Cc1ccc(S(=O)(=O)c2sc3ncccc3c2-c2ccc(F)cc2)cc1C` [Compound 24] showed a Ki of less than 500 nM. In the case of `Cc1ccc(S(=O)(=O)c2sc3ncccc3c2-c2ccc(Cl)cc2)cc1Cl` [Compound 63], the Ki is reported as less than 500 nM. `O=S(=O)(c1ccc(Cl)cc1)c1sc2ncccc2c1-c1ccccc1F` [Compound 114] was tested, and the Ki was less than 500 nM. `N#Cc1cc(F)cc(S(=O)(=O)c2sc3ncccc3c2-c2ccc(F)cc2)c1` [Compound 30] was tested, and the Ki was less than 500 nM. In the case of `O=S(=O)(c1ccc(Cl)cc1)c1sc2ncccc2c1N1CCC(O)CC1` [Compound 99], the Ki is reported as 500 to 1500 nM. Molecule `O=S(=O)(c1ccc(Cl)cc1)c1sc2ncccc2c1-c1cccc(F)c1` [Compound 109] has a Ki of less than 500 nM. `Nc1ccnc2sc(S(=O)(=O)c3ccc(Cl)cc3)c(-c3ccc(Cl)cc3)c12` [Compound 125, 4-Amino-2-(4-chloro-benzenesulfonyl)-3-(4-chloro-phenyl)-thieno[2,3-b]pyridine] showed a Ki of less than 500 nM. Work on `Cc1ccc(S(=O)(=O)c2sc3ncccc3c2-c2ccc(Cl)cc2)cc1C` [Compound 62] yielded a Ki of less than 500 nM. In the case of `Cc1ccc(-c2c(S(=O)(=O)c3ccc(C)cc3)sc3ncccc23)cc1` [Compound 27], the Ki is reported as less than 500 nM. With `O=S(=O)(c1ccc(Cl)cc1)c1sc2ncccc2c1-c1ccccc1Cl` [Compound 113] the Ki was less than 500 nM. `Cc1ccc(S(=O)(=O)c2sc3nc(Cl)ccc3c2-c2ccc(Cl)cc2)cc1F` [Compound 81] was tested, and the Ki was less than 500 nM. For `CS(=O)(=O)Nc1cnc2sc(S(=O)(=O)c3ccc(Cl)cc3)c(-c3ccc(Cl)cc3)c2c1` [Compound 85, N-[2-(4-Chloro-benzenesulfonyl)-3-(4-chloro-phenyl)-thieno[2,3-b]pyridin-5-yl]-methanesulfonamide], the Ki was less than 500 nM. `N#Cc1cc(F)cc(S(=O)(=O)c2sc3nc(F)ccc3c2-c2cccc(F)c2)c1` [Compound 139] was tested, and the Ki was less than 500 nM. With `O=S(=O)(c1cccc(F)c1)c1sc2ncccc2c1-c1ccc(Cl)cc1` [Compound 31] the Ki was less than 500 nM. In the case of `Nc1cnc2sc(S(=O)(=O)c3ccc(Cl)cc3)c(-c3cccc(F)c3)c2c1` [Compound 115, 5-Amino-2-(4-chloro-benzenesulfonyl)-3-(3-fluor-phenyl)-thieno[2,3-b]pyridine], the Ki is reported as less than 500 nM. Work on `CC1CCCN(c2c(S(=O)(=O)c3cccc(C#N)c3)sc3ncccc23)C1` (centres unmarked) [Compound 32] yielded a Ki of less than 500 nM. In the case of `Cc1cccc(S(=O)(=O)c2sc3nc(Cl)ccc3c2-c2ccc(Cl)cc2)c1` [Compound 50], the Ki is reported as less than 500 nM. `CC1CCN(c2c(S(=O)(=O)c3cc(F)cc(C#N)c3)sc3ncccc23)CC1` [Compound 96] was tested, and the Ki was less than 500 nM. For `COc1ccc(S(=O)(=O)c2sc3ncccc3c2NC(=O)N2CCC(C)CC2)cc1` [Compound 120, N-[2-(4-methoxy-benzenesulfonyl)-thieno[2,3b]pyridin-3-yl]-4-methyl-piperidine-1-carboxamide], the Ki was greater than 1500 nM. With `O=S(=O)(c1ccc(Cl)cc1)c1sc2ncccc2c1N1CCOCC1` [Compound 46] the Ki was less than 500 nM. For `CN(C)c1ccc2c(-c3ccc(Cl)cc3)c(S(=O)(=O)c3ccc(Cl)cc3)sc2n1` [Compound 47, 2-(4-Chloro-benzenesulfonyl)-3-(4-chloro-phenyl)-6-dimethylamino-thieno[2,3-b]pyridine], the Ki was 500 to 1500 nM. Molecule `O=S(=O)(c1ccc(Cl)cc1)c1sc2nc(F)ccc2c1-c1ccc(Cl)cc1` [Compound 58] has a Ki of less than 500 nM. Work on `N#CC1CCN(c2c(S(=O)(=O)c3ccc(Cl)cc3)sc3ncccc23)CC1` [Compound 93] yielded a Ki of 500 to 1500 nM. Molecule `Cc1ccc(-c2c(S(=O)(=O)c3cccc(C)c3)sc3ncccc23)cc1` [Compound 26] has a Ki of less than 500 nM. `CC1CCN(c2c(S(=O)(=O)c3ccc(Cl)cc3)sc3ncc(N)cc23)CC1` [Compound 104, 5-Amino-2-(4-chloro-benzenesulfonyl)-3-(4-methyl-piperidine)-thieno[2,3-b]pyridine] gave a Ki of less than 500 nM. For `COc1ccc(S(=O)(=O)c2sc3ncccc3c2-c2ccc(F)cc2)cc1F` [Compound 126], the Ki was less than 500 nM. Work on `O=S(=O)(c1ccc(Cl)cc1)c1sc2ncccc2c1-c1ccc(F)cc1F` [Compound 130] yielded a Ki of less than 500 nM. Molecule `Cc1cc(C)c(S(=O)(=O)c2sc3ncccc3c2-c2ccc(Cl)cc2)c(C)c1` [Compound 56] has a Ki greater than 1500 nM. `COc1ccc(S(=O)(=O)c2sc3ncccc3c2-c2cccc(Cl)c2)cc1F` [Compound 128] was tested, and the Ki was less than 500 nM. Work on `O=S(=O)(c1ccc(Br)cc1)c1sc2ncccc2c1-c1ccc(Cl)cc1` [Compound 25] yielded a Ki of less than 500 nM. In the case of `O=S(=O)(c1ccc(Cl)cc1)c1sc2nc(Cl)ccc2c1-c1ccc(Cl)cc1` [Compound 43, 6-chloro-2-(4-chloro-benzenesulfonyl)-3-(4-chloro-phenyl)-thieno[2,3-b]pyridine], the Ki is reported as less than 500 nM. In the case of `COc1cccc(S(=O)(=O)c2sc3ncccc3c2-c2ccc(Cl)cc2)c1` [Compound 70], the Ki is reported as less than 500 nM. In the case of `CC1CCN(c2cc(C#N)cc(S(=O)(=O)c3sc4ncccc4c3N3CCC(C)CC3)c2)CC1` [Compound 95], the Ki is reported as 500 to 1500 nM. `N#Cc1cc(F)cc(S(=O)(=O)c2sc3nc(Cl)ccc3c2-c2ccc(Cl)cc2)c1` [Compound 86, 2-(3-Cyano-5-fluoro-benzenesulfonyl)-3-(4-chloro-phenyl)-6-chloro-thieno[2,3-b]pyridine] gave a Ki of less than 500 nM. With `Nc1cnc2sc(S(=O)(=O)c3ccc(Cl)cc3)c(-c3ccccc3F)c2c1` [Compound 131] the Ki was less than 500 nM. `CN(C)c1c(S(=O)(=O)c2ccc(Cl)cc2)sc2ncccc12` [Compound 100] gave a Ki of less than 500 nM. `Cc1ccc(S(=O)(=O)c2sc3ncccc3c2-c2ccc(Cl)cc2)cc1F` [Compound 39] was tested, and the Ki was less than 500 nM. Work on `O=S(=O)(c1ccc(Cl)cc1)c1sc2ncccc2c1N1CCCC(O)C1` (centres unmarked) [Compound 98] yielded a Ki of less than 500 nM. Work on `CC(C)c1ccc(S(=O)(=O)c2sc3ncccc3c2-c2ccc(Cl)cc2)cc1` [Compound 88] yielded a Ki of less than 500 nM. `CNC(=O)Nc1c(S(=O)(=O)c2ccc(OC)cc2)sc2ncccc12` [Compound 111] showed a Ki greater than 1500 nM.
